Measurements from the NIST ThermoML archive (doi:10.1021/je400529k).
± gives the expanded uncertainty stated by the source.

Test: xn = mol fraction of the nth substance listed
Settings: 101 kPa, Liquid; for viscosity: Capillary tube (Ostwald / Ubbelohde) method; for mass density: Vibrating tube method

CCC1CCCCC1 [ethylcyclohexane] + C1C[C@@H]2[C@H]3CC[C@H](C3)[C@@H]2C1
Settings	mass density, 293.15 K [kg/m3]	mass density, 298.15 K [kg/m3]	mass density, 303.15 K [kg/m3]	mass density, 308.15 K [kg/m3]	viscosity, 293.15 K [mPa·s]	viscosity, 298.15 K [mPa·s]	viscosity, 303.15 K [mPa·s]	viscosity, 308.15 K [mPa·s]
x2 = 0	788.02 ± 0.15	784.01 ± 0.15	779.98 ± 0.15	775.93 ± 0.15	0.845 ± 0.009	0.791 ± 0.009	0.743 ± 0.009	0.7 ± 0.009
x2 = 0.0997	803.52 ± 0.15	799.47 ± 0.15	795.44 ± 0.15	791.4 ± 0.15	0.941 ± 0.01	0.878 ± 0.01	0.822 ± 0.009	0.772 ± 0.009
x2 = 0.2006	818.96 ± 0.14	814.95 ± 0.15	810.94 ± 0.15	806.91 ± 0.15	1.052 ± 0.01	0.979 ± 0.01	0.914 ± 0.01	0.856 ± 0.009
x2 = 0.3001	834.08 ± 0.14	830.07 ± 0.14	826.06 ± 0.14	822.04 ± 0.15	1.189 ± 0.01	1.104 ± 0.01	1.028 ± 0.01	0.96 ± 0.01
x2 = 0.4003	849.15 ± 0.14	845.18 ± 0.14	841.18 ± 0.14	837.18 ± 0.14	1.344 ± 0.011	1.243 ± 0.011	1.155 ± 0.01	1.076 ± 0.01
x2 = 0.5001	863.99 ± 0.14	860.01 ± 0.14	856.03 ± 0.14	–	1.514 ± 0.012	1.396 ± 0.011	1.293 ± 0.011	1.202 ± 0.011
x2 = 0.6011	878.81 ± 0.14	874.85 ± 0.14	870.9 ± 0.14	–	1.726 ± 0.013	1.586 ± 0.012	1.464 ± 0.012	1.356 ± 0.011
x2 = 0.7	893.21 ± 0.14	889.26 ± 0.14	885.3 ± 0.14	–	1.965 ± 0.014	1.8 ± 0.013	1.656 ± 0.013	1.53 ± 0.012
x2 = 0.8001	907.54 ± 0.14	903.61 ± 0.14	899.67 ± 0.15	–	2.251 ± 0.015	2.055 ± 0.014	1.884 ± 0.014	1.735 ± 0.013
x2 = 0.8996	921.66 ± 0.15	917.75 ± 0.15	913.82 ± 0.15	–	2.593 ± 0.017	2.358 ± 0.016	2.155 ± 0.015	1.976 ± 0.014
